How the values were obtained:
Format in all cases: biochemical
Human matrilysin (Matr) = biological target: T1, Human matrilysin (Matr) (Homo sapiens, UniProt P09237); experiment: Fluorometric MCA-peptide hydrolysis assay, matrilysin (Matr); settings: apparent Ki; 10 μM MCA peptide substrate, 37° C., pH 7.5; read-out: Matr (Ki,app)
T1 construct: the catalytic domain was liberated by treatment with 2 mM APMA at 37° C. for 2 hours; ubiquitin (cleaved yes); made in house; host or cells: E. coli
T1 sequence (P09237 95-267): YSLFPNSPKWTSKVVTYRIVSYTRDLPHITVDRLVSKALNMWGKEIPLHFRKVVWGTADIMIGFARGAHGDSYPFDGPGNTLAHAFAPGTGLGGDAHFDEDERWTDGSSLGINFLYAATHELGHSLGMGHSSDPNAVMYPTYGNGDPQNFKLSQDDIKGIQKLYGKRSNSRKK
Protocol: Human matrilysin (Matr) was expressed in E. coli as a fusion protein with ubiquitin. After purification of the matrilysin/ubiquitin fusion from inclusion bodies, the catalytic domain was liberated by treatment with 2 mM APMA at 37° C. for 2 hours. Final purification was complete using copper chelate chromatography.
(§1) Assays were performed in assay buffer (50 mM Tricine pH 7.5, 200 mM sodium chloride, 10 mM calcium chloride, 0.5 mM zinc acetate containing 2% dimethyl sulfoxide (DMSO)) once the substrate and inhibitor were diluted into it. Stock solutions of inhibitors were prepared in 100% DMSO. Stock solutions of the substrate were prepared in 100% DMSO at a concentration of 6 mM.
(§2) The assay method was based on the hydrolysis of MCA-Pro-Leu-Gly-Leu-DPA-Ala-Arg-NH2 (American Peptide Co.) at 37° C. (see Knight, C. G. et al., FEBS, 1992, 296, 263-266). The fluorescence changes were monitored with a Perkin-Elmer LS-50B fluorimeter using an excitation wavelength of 328 nm and an emission wavelength of 393 nm. The substrate concentration used in the assays was 10 μM. The inhibitor was diluted into the assays from a solution in 100% DMSO, and controls substituted an equal volume of DMSO so that the final DMSO concentration from inhibitor and substrate dilution in all assays was 2%. […] Proper determination of steady-state rates of substrate cleavage required assay lengths of 60 minutes to allow for complete equilibration of the enzyme-inhibitor complex.
(§3) The Km for the MCA peptide substrate with the matrix metalloproteinases is quite high and exceeds its solubility under assay conditions. Consequently, the apparent Ki (Ki,app) was determined to describe the strength of inhibition. However, in this case, Ki,app would be essentially equal to Ki since [S]<<Km. For the determination of Ki,app, the concentration of the inhibitor was varied at a constant and low concentration of substrate and the steady-state rates of fluorescence change determined. In most cases absorptive quench due to the presence of ligand was not observed. For slow-binding inhibitors, onset of inhibition curves were collected for at least 45 minutes so that equilibrium was established. Steady-state rates of fluorescence change were obtained by fitting a curve to an equation for a single exponential decay containing a linear phase. The fitted value of the linear phase was taken as the steady-state rate. The steady-state rates were fitted to the Michaelis equation describing competitive inhibition by non-linear methods. Data resulting from tight-binding inhibition was analyzed, and Ki,app determined by fitting the data to the tight-binding equation of Morrison (Biochem. Biophys. Acta, vol. 185, pp. 269-286 (1969)) by non-linear methods.

[1] = biological target: T2, catalytic domain of human stromelysin (Hsln) (Homo sapiens, UniProt P08254); experiment: Fluorometric MCA-peptide hydrolysis assay, stromelysin (Hsln); settings: apparent Ki; 10 μM MCA peptide substrate, 37° C., pH 7.5; read-out: Hsln (Ki,app)
T2 construct: The catalytic domain of human stromelysin (Hsln) was obtained by expression and purification of a C-terminally truncated prostromelysin-1; made in house; host or cells: E. coli BL21
T2 sequence (P08254 100-272 limits assumed): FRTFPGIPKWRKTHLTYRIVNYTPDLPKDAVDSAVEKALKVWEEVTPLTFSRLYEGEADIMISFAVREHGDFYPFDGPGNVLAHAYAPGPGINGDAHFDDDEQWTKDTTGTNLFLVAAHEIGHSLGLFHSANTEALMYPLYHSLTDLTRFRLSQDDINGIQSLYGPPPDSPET
Protocol: The catalytic domain of human stromelysin (Hsln) was obtained by expression and purification of a C-terminally truncated prostromelysin-1 from E. coli host BL21 (see Marcy et al. Biochem., 1991, 30, 6476). The subsequent activation of the mature form (Hsln) was completed with 2 mM APMA for 1 hour at 37° C., followed by separation using a sizing column.
as §1, §2, §3

[2] = biological target: T3, human progelatinase A (GelA), catalytic and fibronectin-like portion (Homo sapiens, UniProt P08253); experiment: Fluorometric MCA-peptide hydrolysis assay, gelatinase A (GelA); settings: apparent Ki, 10 μM MCA peptide substrate, 37° C., pH 7.5; for Ki: read-out: GelA (Ki,app)
T3 construct: The catalytic and fibronectin-like portion of human progelatinase A (GelA) was expressed as a fusion protein with ubiquitin; ubiquitin; made in house; host or cells: E. coli
T3 sequence (P08253 110-465 limits assumed): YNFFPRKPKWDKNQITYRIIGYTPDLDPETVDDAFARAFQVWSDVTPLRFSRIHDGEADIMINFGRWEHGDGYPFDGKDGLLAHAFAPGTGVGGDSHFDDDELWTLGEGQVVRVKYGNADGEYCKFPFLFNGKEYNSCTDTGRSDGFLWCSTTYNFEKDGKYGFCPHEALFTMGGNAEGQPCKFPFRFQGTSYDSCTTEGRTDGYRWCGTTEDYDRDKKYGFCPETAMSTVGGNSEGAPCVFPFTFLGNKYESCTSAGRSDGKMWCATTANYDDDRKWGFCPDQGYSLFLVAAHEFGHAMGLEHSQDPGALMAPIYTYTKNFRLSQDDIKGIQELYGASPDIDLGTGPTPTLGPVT
Protocol: The catalytic and fibronectin-like portion of human progelatinase A (GelA) was expressed as a fusion protein with ubiquitin in E. Coli. Assays were carried out on autocatalytically activated material.
as §1, §2, §3

[3] = biological target: T4, human collagenase-3 (Coll3) (Homo sapiens, UniProt P45452); experiment: Fluorometric MCA-peptide hydrolysis assay, collagenase-3 (Coll3); settings: apparent Ki; 10 μM MCA peptide substrate, 37° C., pH 7.5; read-out: Coll3 (Ki,app)
T4 construct: the catalytic domain was liberated by treatment with 2 mM APMA at room temperature overnight; ubiquitin (N, cleaved yes); made in house; host or cells: E. coli
Protocol: The propeptide and catalytic domain of human collagenase-3 (Coll3) was expressed in E. coli as an N-terminal fusion protein with ubiquitin. After purification of the fusion from inclusion bodies, the catalytic domain was liberated by treatment with 2 mM APMA at room temperature overnight. Final purification was completed using copper chelate chromatography.
as §1, §2
as §3, with “In most cases absorptive quench due to the presence of ligand was not observed.” left out

## CC(=O)[C@H](CC(C)C)NC(=O)[C@@H](CC(=O)O)n1ccc(-c2ccc(-c3ccccc3)cc2)c1 [Example 2, N-(1(S)-Acetyl-3-methylbutyl)-3(R)-[3-(biphenyl-4-yl)-1H-pyrrol-1-yl)succinamic Acid]
Human matrilysin (Matr)
  Ki: 400 nM
[1]
  Ki: 89 nM
[2]
  GelA (Ki,app): 6.2 nM
[3]
  Ki: 123 nM

## CNC(=O)[C@@H](NC(=O)[C@@H](CC(=O)O)c1ccn(-c2ccc(-c3ccc(C#N)cc3)cc2)c1)C(C)(C)C [Example 14(b), 3(S)-[1-(4′-Cyanobiphenyl-4-yl)-1H-pyrrol-3-yl]-N-[2,2-dimethyl-1(S)-(methylcarbamoyl)propyl]succinamic Acid]
[1]
  Ki: 1.3 nM
[2]
  GelA (Ki,app): 0.012 nM
[3]
  Ki: 0.028 nM

## CNC(=O)[C@@H](CC(=O)O)n1ccc(-c2ccc(-c3ccncc3)cc2)c1 [Example 7(d), N-Methyl-3(R)-[3-[4-(pyridin-4-yl)phenyl]-1H-pyrrol-1-yl]succinamic Acid]
[1]
  Ki: 1580 nM
[2]
  GelA (Ki,app): 121 nM
[3]
  Ki: 284 nM

## 3(R)-[3-(4-Cyanophenyl)-1H-pyrrol-1-yl]-N-(2,2-dimethyl-1(S)-(hydroxymethyl)propyl)succinamic Acid Triethylammonium Salt [Example 5(h)]
[1]
  Ki: 650 nM
[2]
  Ki: 17.4 nM
[3]
  Ki: 43 nM

## CC(C)(C)[C@@H](CO)NC(=O)[C@@H](CC(=O)NO)n1ccc(-c2ccc(-c3ccncc3)cc2)c1 [Example 9, N^1-[2,2-Dimethyl-1(S)-(hydroxymethyl)propyl]-N^4-hydroxy-2(R)-[3-[4-(pyridin-4-yl)phenyl]-1H-pyrrol-1-yl]succinamide]
[1]
  Ki: 0.2 nM
[2]
  GelA (Ki,app): 0.011 nM
[3]
  Ki: 0.018 nM

## CNC(=O)[C@@H](NC(=O)[C@@H](CC(=O)O)n1ccc(C(=O)Cc2ccc(C#N)cc2)c1)C(C)(C)C [Example 1(p), 3(R)-[3-[(4-Cyanophenyl)acetyl]-1H-pyrrol-1-yl]-N-(2,2-dimethyl-1(S)-(methylcarbamoyl)propyl]succinamic Acid]
[1]
  Ki: 55000 nM
[2]
  GelA (Ki,app): 1230 nM

## O=C(O)C[C@H](C(=O)N[C@@H]1CCCC[C@H]1O)n1ccc(-c2ccc(-c3ccccc3)cc2)c1 [Example 1(h), 3(R)-[3-(Biphenyl-4-yl)-1H-pyrrol-1-yl]-N-(2(R)-hydroxycyclohex-1(R)-yl)succinamic Acid]
[1]
  Ki: 822 nM
[2]
  GelA (Ki,app): 58 nM
[3]
  Ki: 3000 nM

## O=C(C[C@H](C(=O)N[C@H](CO)Cc1ccccc1)n1ccc(-c2ccc(-c3ccccc3)cc2)c1)NO [Example 8(a)]
Human matrilysin (Matr)
  Ki: 36 nM
[1]
  Ki: 0.69 nM
[2]
  GelA (Ki,app): 0.027 nM

## CC(C)C[C@H](NC(=O)[C@@H](CC(=O)O)n1ccc(-c2ccc(-c3ccncc3)cc2)c1)c1ncc[nH]1.O=CO [Example 7(c), N-[1(S)-(1H-Imidazol-2-yl)-3-methylbutyl]-3(R)-[3-[4-(pyridin-4-yl)phenyl]-1H-pyrrol-1-yl]succinamic Acid Formate Salt]
Human matrilysin (Matr)
  Ki: 5330 nM
[1]
  Ki: 26 nM
[2]
  GelA (Ki,app): 0.055 nM
[3]
  Ki: 1.3 nM

## O=C(O)C[C@H](C(=O)N[C@H](CO)Cc1ccccc1)n1ccc(-c2ccc(-c3ccccc3)cc2)c1 [1(a), N-(1(S)-Benzyl-2-hydroxyethyl)-3(R)-[3-(biphenyl-4-yl)-1H-pyrrol-1-yl]succinamic Acid]
Human matrilysin (Matr)
  Ki: 1000 nM
[1]
  Ki: 65 nM
[2]
  GelA (Ki,app): 5.4 nM
[3]
  Ki: 30 nM

## CON(C)C(=O)[C@H](CC(C)C)NC(=O)[C@@H](CC(=O)O)n1ccc(-c2ccc(-c3ccccc3)cc2)c1 [Example 1(l)]
[1]
  Ki: 317 nM
[2]
  GelA (Ki,app): 54 nM
[3]
  Ki: 227 nM

## C=CC[C@H](C(=O)O)[C@H](C(=O)N[C@H](CO)C(C)(C)C)n1ccc(-c2ccc(-c3ccccc3)cc2)c1 [Example 12, 2S, 2(1S)-[[3-(Biphenyl-4-yl)-1H-pyrrol-1R-yl]-[2,2-dimethyl-1(S)-(hydroxymethyl)propylcarbamoyl]methyl]pent-4-enoic Acid]
[1]
  Ki: > 500 nM
[2]
  GelA (Ki,app): > 500 nM

## O=C(O)C[C@H](C(=O)N[C@H](CO)Cc1ccccc1)c1ccc(-c2ccc(-c3ccccc3)cc2)o1 [Example 15(a), N-(1(S)-Benzyl-2-hydroxyethyl)-3(S)-(2-(biphenyl-4-yl)furan-5-yl)succinamic Acid]
[1]
  Ki: 92 nM
[2]
  GelA (Ki,app): 72 nM
[3]
  Ki: 300 nM

## CC(C)C[C@H](NC(=O)[C@@H](CC(=O)O)n1ccc(-c2ccc(-c3ccccc3)cc2)c1)C(C)O (mixture of isomers) [Example 3]
Human matrilysin (Matr)
  Ki: 1250 nM
[1]
  Ki: 150 nM
[2]
  GelA (Ki,app): 58 nM
[3]
  Ki: 180 nM

## CNC(=O)[C@@H](NC(=O)C(CC(=O)O)c1ccc(-c2ccc(-c3ccccc3)cc2)o1)C(C)(C)C (stereo partly drawn) [Example 15(b), N-[2,2-Dimethyl-1(S)-(methylcarbamoyl)propyl]-3-(2-(biphenyl-4-yl)-furan-5-yl)succinamic Acid]
[1]
  Ki: 122 nM
[2]
  GelA (Ki,app): 91 nM
[3]
  Ki: 1020 nM

## CC(C)(C)[C@@H](CO)NC(=O)[C@@H]([C@H](CCCO)C(=O)O)n1ccc(-c2ccc(-c3ccccc3)cc2)c1 [Example 11, 2S-[1R-(3-(Biphenyl-4-yl)-1H-pyrrol-1-yl)-1-(1(S)-hydroxymethyl-2,2-dimethyl-propylcarbamoyl)-methyl]-5-hydroxypentanoic Acid]
[1]
  Ki: 62 nM
[2]
  GelA (Ki,app): 60 nM
[3]
  Ki: > 750 nM

## O=C(O)C(F)(F)F.O=C(O)C[C@H](C(=O)N[C@H](CO)Cc1c[nH]cn1)n1ccc(-c2ccc(-c3ccccc3)cc2)c1 [Example 1(g), 3(R)-[3-(Biphenyl-4-yl)-1H-pyrrol-1-yl]-N-[2-hydroxy-1(S)-[(1H-imidazol-4-yl)methyl]ethyl]succinamic Acid Trifluoroacetate Salt]
[1]
  Ki: 58 nM
[2]
  GelA (Ki,app): 8.5 nM
[3]
  Ki: 58.5 nM

## 3(R)-[3-(4′-Cyanobiphenyl-4-yl)-1H-pyrrol-1-yl]-N-[2,2-dimethyl-1(S)-(hydroxymethyl)propyl]succinamic Acid Triethylammonium Salt [Example 5(g)]
[1]
  Ki: 57 nM
[2]
  Ki: 2.2 nM
[3]
  Ki: 14.5 nM

Reference: patent US6495699B2, “Metalloproteinase inhibitors, pharmaceutical compositions containing them, and their use” (Agouron Pharmaceuticals Inc., priority 1996, dated 2002)
